Structures can show the parent of a compound that is named as a salt.
biological target: T1, human LPA1 (Homo sapiens, UniProt Q92633); test: LPA1 functional antagonist assay (LPA-induced calcium flux in CHO cells overexpressing human LPA1); type: cell-based; conditions: inhibition of calcium flux induced by 10 nM LPA, CHO cells overexpressing human LPA1; read-out: hLPA1 IC50
T1 construct: expressed in transfected cells; host or cells: Chinese hamster ovary (CHO) cells
Experimental: The effectiveness of compounds of the present invention as LPA1 inhibitors can be determined in an LPA1 functional antagonist assay as follows:
Chinese hamster ovary cells overexpressing human LPA1 were plated overnight (15,000 cells/well) in poly-D-lysine coated 384-well microplates (Greiner bio-one, Cat #781946) in DMEM/F12 medium (Gibco, Cat #11039). Following overnight culture, cells were loaded with calcium indicator dye (AAT Bioquest Inc, Cat #34601) for 30 minutes at 37° C. The cells were then equilibrated to room temperature for 30 minutes before the assay. Test compounds solubilized in DMSO were transferred to 384 well non-binding surface plates (Corning, Cat #3575) using the Labcyte Echo acoustic dispense and diluted with assay buffer [IX HBSS with calcium/magnesium (Gibco Cat #14025-092), 20 mM HEPES (Gibco Cat #15630-080) and 0.1% fatty acid free BSA (Sigma Cat #A9205)] to a final concentration of 0.5% DMSO. Diluted compounds were added to the cells by FDSS6000 (Hamamatsu) at final concentrations ranging from 0.08 nM to 5 μM. and were then incubated for 20 min at room temperature at which time LPA (Avanti Polar Lipids Cat #857130C) was added at final concentrations of 10 nM to stimulate the cells. The compound IC50 value was defined as the concentration of test compound which inhibited 50% of the calcium flux induced by LPA alone. IC50 values were determined by fitting data to a 4-parameter logistic equation (GraphPad Prism, San Diego Calif.).

T1 sequence (Q92633 whole entry): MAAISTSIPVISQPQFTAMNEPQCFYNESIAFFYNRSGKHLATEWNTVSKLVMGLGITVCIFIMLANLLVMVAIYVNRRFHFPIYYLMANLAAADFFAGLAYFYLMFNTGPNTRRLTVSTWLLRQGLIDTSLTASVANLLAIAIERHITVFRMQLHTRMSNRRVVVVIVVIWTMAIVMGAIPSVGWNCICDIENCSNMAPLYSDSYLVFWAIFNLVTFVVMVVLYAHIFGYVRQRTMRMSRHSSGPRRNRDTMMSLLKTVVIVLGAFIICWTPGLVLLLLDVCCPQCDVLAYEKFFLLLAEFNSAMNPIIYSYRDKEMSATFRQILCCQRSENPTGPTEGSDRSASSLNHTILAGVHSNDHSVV

**Q.** How did the IC50 turn out when `CCc1cnc(NCc2c(-c3ccc(O[C@H]4CCC[C@H](C(=O)O)C4)c(C)n3)nnn2C)o1` [Example 19] was run?
**A.** 0.106 µM

**Q.** Which IC50 does the source give for `Cc1nc(-c2nnn(C)c2CNc2ncc(-c3ccccn3)o2)ccc1O[C@H]1CCC[C@H](C(=O)O)C1` [Example 20] here?
**A.** 0.099 µM

**Q.** `Cc1nc(-c2nnn(C)c2CNc2nc(-c3ccccc3)c(F)s2)ccc1O[C@H]1CCC[C@H](C(=O)O)C1` [Example 21, (1 S,3 S)-3-((6-(5-(((5-fluoro-4-phenylthiazol-2-yl)amino)methyl)-1-methyl-1H-1,2,3-triazol-4-yl)-2-methylpyridin-3-yl)oxy)cyclohexane-1-carboxylic acid] was tested. Which IC50 did it give?
**A.** 0.018 µM

**Q.** With `Cc1nc(-c2nnn(C)c2CNc2cnn(CC(C)C)n2)ccc1O[C@H]1CCC[C@H](C(=O)O)C1` [Example 22, (1 S,3 S)-3-((6-(5-(((2-isobutyl-2H-1,2,3-triazol-4-yl)amino)methyl)-1-methyl-1H-1,2,3-triazol-4-yl)-2-methylpyridin-3-yl)oxy)cyclohexane-1-carboxylic acid] as the compound, how does the IC50 read?
**A.** 0.042 µM

**Q.** With `Cc1nc(-c2nnn(C)c2CNc2cn(CC(C)C)nn2)ccc1O[C@H]1CCC[C@H](C(=O)O)C1` [Example 23, (1 S,3 S)-3-((6-(5-(((1-isobutyl-1H-1,2,3-triazol-4-yl)amino)methyl)-1-methyl-1H-1,2,3-triazol-4-yl)-2-methylpyridin-3-yl)oxy)cyclohexane-1-carboxylic acid] as the compound, how does the IC50 read?
**A.** 0.435 µM

**Q.** How did the IC50 turn out when `Cc1nc(-c2nnn(C)c2CNc2cnn(CC3CCC3)n2)ccc1O[C@H]1CCC[C@H](C(=O)O)C1` [Example 24, (1 S,3 S)-3-((6-(5-(((2-(cyclobutylmethyl)-2H-1,2,3-triazol-4-yl)amino)methyl)-1-methyl-1H-1,2,3-triazol-4-yl)-2-methylpyridin-3-yl)oxy)cyclohexane-1-carboxylic acid] was run?
**A.** 0.033 µM

**Q.** With `Cc1nc(-c2nnn(C)c2CNc2ncn(CC(C)C)n2)ccc1O[C@H]1CCC[C@H](C(=O)O)C1` [Example 25, (1 S,3 S)-3-((6-(5-(((1-isobutyl-1H-1,2,4-triazol-3-yl)amino)methyl)-1-methyl-1H-1,2,3-triazol-4-yl)-2-methylpyridin-3-yl)oxy)cyclohexane-1-carboxylic acid] as the compound, how does the IC50 read?
**A.** 0.125 µM

**Q.** Which IC50 does the source give for `Cc1nc(-c2nnn(C)c2CNc2nc(C)c(C)s2)ccc1O[C@H]1CCC[C@H](C(=O)O)C1` [Example 26] here?
**A.** 3.65 µM

**Q.** Which IC50 does the source give for `Cc1nc(-c2nnn(C)c2CNc2cnn(C3CCCCC3)n2)ccc1O[C@H]1CCC[C@H](C(=O)O)C1` [Example 27] here?
**A.** 0.1 µM

**Q.** `Cc1nc(-c2nnn(C)c2CNc2cnn(C3CCCC3)n2)ccc1O[C@H]1CCC[C@H](C(=O)O)C1` [Example 28] was tested. Which IC50 did it give?
**A.** 0.039 µM

**Q.** `CCCn1ncc(NCc2c(-c3ccc(O[C@H]4CCC[C@H](C(=O)O)C4)c(C)n3)nnn2C)n1` [Example 29] was tested. Which IC50 did it give?
**A.** 0.297 µM

**Q.** With `Cc1nc(-c2nnn(C)c2CNc2cnn(C3CCC3)n2)ccc1O[C@H]1CCC[C@H](C(=O)O)C1` [Example 30] as the compound, how does the IC50 read?
**A.** 0.091 µM

**Q.** Which IC50 does the source give for `Cc1nc(-c2nnn(C)c2CNc2cnn(CC3CC3)n2)ccc1O[C@H]1CCC[C@H](C(=O)O)C1` [Example 31] here?
**A.** 0.054 µM

**Q.** How did the IC50 turn out when `Cc1nc(-c2nnn(C)c2CNc2cnn(-c3ccccc3)n2)ccc1O[C@H]1CCC[C@H](C(=O)O)C1` [Example 32] was run?
**A.** 0.01 µM

**Q.** With `Cc1nc(-c2nnn(C)c2CNc2cnn(-c3ccc(F)cc3)n2)ccc1O[C@H]1CCC[C@H](C(=O)O)C1` [Example 33, (1 S,3 S)-3-((6-(5-(((2-(4-fluorophenyl)-2H-1,2,3-triazol-4-yl)amino)methyl)-1-methyl-1H-1,2,3-triazol-4-yl)-2-methylpyridin-3-yl)oxy)cyclohexane-1-carboxylic acid] as the compound, how does the IC50 read?
**A.** 0.084 µM

**Q.** With `Cc1nc(-c2nnn(C)c2CNc2ncn(Cc3ccccc3)n2)ccc1O[C@H]1CCC[C@H](C(=O)O)C1` [Example 34] as the compound, how does the IC50 read?
**A.** 0.332 µM

**Q.** Which IC50 does the source give for `CCCn1cnc(NCc2c(-c3ccc(O[C@H]4CCC[C@H](C(=O)O)C4)c(C)n3)nnn2C)n1` [Example 35] here?
**A.** 0.309 µM

**Q.** `Cc1nc(-c2nnn(C)c2CNc2ncn(C3CCCCC3)n2)ccc1O[C@H]1CCC[C@H](C(=O)O)C1` [Example 36] was tested. Which IC50 did it give?
**A.** 0.147 µM

**Q.** How did the IC50 turn out when `Cc1nc(-c2nnn(C)c2CNc2nc(C)n(-c3ccccc3)n2)ccc1O[C@H]1CCC[C@H](C(=O)O)C1` [Example 37] was run?
**A.** 0.046 µM

**Q.** Which IC50 does the source give for `Cc1nc(-c2nnn(C)c2CNc2ncn(-c3ccccc3)n2)ccc1O[C@H]1CCC[C@H](C(=O)O)C1` [Example 38] here?
**A.** 0.034 µM

**Q.** `Cc1nc(-c2nnn(C)c2CNc2ncn(-c3ccc(F)cc3)n2)ccc1O[C@H]1CCC[C@H](C(=O)O)C1` [Example 39] was tested. Which IC50 did it give?
**A.** 0.061 µM

**Q.** Which IC50 does the source give for `Cc1nc(-c2nnn(C)c2CNc2ncn(-c3cc(F)cc(F)c3)n2)ccc1O[C@H]1CCC[C@H](C(=O)O)C1` [Example 40] here?
**A.** 0.046 µM

**Q.** With `Cc1nc(-c2nnn(C)c2Cn2nc(Cc3ccccc3)oc2=N)ccc1O[C@H]1CCC[C@H](C(=O)O)C1` [Example 41, (1S,3S)-3-((6-(5-((5-Benzyl-2-imino-1,3,4-oxadiazol-3(2H)-yl)methyl)-1-methyl-1H-1,2,3-triazol-4-yl)-2-methylpyridin-3-yl)oxy)cyclohexane-1-carboxylic acid, bis TFA salt] as the compound, how does the IC50 read?
**A.** 0.221 µM

**Q.** For `Cc1nc(-c2nnn(C)c2CNc2nnc(C(C)C)o2)ccc1O[C@H]1CCC[C@H](C(=O)O)C1` [Example 42, (1S,3S)-3-((6-(5-(((5-Isopropyl-1,3,4-oxadiazol-2-yl)amino)methyl)-1-methyl-1H-1,2,3-triazol-4-yl)-2-methylpyridin-3-yl)oxy)cyclohexane-1-carboxylic acid, 2 TFA salt], which IC50 is on record?
**A.** 1.41 µM

**Q.** How did the IC50 turn out when `CCCCc1noc(NCc2c(-c3ccc(O[C@H]4CCC[C@H](C(=O)O)C4)c(C)n3)nnn2C)n1` [Example 43, (1S,3S)-3-((6-(5-(((3-Butyl-1,2,4-oxadiazol-5-yl)amino)methyl)-1-methyl-1H-1,2,3-triazol-4-yl)-2-methylpyridin-3-yl)oxy)cyclohexane-1-carboxylic acid, bis TFA salt] was run?
**A.** 0.076 µM

**Q.** Which IC50 does the source give for `Cc1nc(-c2nnn(C)c2CNc2nc(C3CCC3)no2)ccc1O[C@H]1CCC[C@H](C(=O)O)C1` [Example 44, (1S,3S)-3-((6-(5-(((3-Cyclobutyl-1,2,4-oxadiazol-5-yl)amino)methyl)-1-methyl-1H-1,2,3-triazol-4-yl)-2-methylpyridin-3-yl)oxy)cyclohexane-1-carboxylic acid, 2 TFA salt] here?
**A.** 0.105 µM

**Q.** Which IC50 does the source give for `Cc1nc(-c2nnn(C)c2Cn2nc(C3CCCC3)oc2=N)ccc1O[C@H]1CCC[C@H](C(=O)O)C1` [Example 45] here?
**A.** 0.228 µM

**Q.** `Cc1nc(-c2nnn(C)c2Cn2nc(C3CCC3)oc2=N)ccc1O[C@H]1CCC[C@H](C(=O)O)C1` [Example 46] was tested. Which IC50 did it give?
**A.** 0.137 µM

**Q.** How did the IC50 turn out when `Cc1nc(-c2nnn(C)c2CNc2nnc(C(F)(F)F)o2)ccc1O[C@H]1CCC[C@H](C(=O)O)C1` [Example 47] was run?
**A.** 0.595 µM

**Q.** With `Cc1nc(-c2nnn(C)c2CNc2nnc(C3CCCC3)o2)ccc1O[C@H]1CCC[C@H](C(=O)O)C1` [Example 48] as the compound, how does the IC50 read?
**A.** 0.209 µM

**Q.** `Cc1nc(-c2nnn(C)c2CNc2nnc(-c3ccccc3)o2)ccc1O[C@H]1CCC[C@H](C(=O)O)C1` [Example 49] was tested. Which IC50 did it give?
**A.** 0.18 µM

**Q.** How did the IC50 turn out when `Cc1nc(-c2nnn(C)c2CNc2nnc(Cc3ccccc3)o2)ccc1O[C@H]1CCC[C@H](C(=O)O)C1` [Example 50] was run?
**A.** 0.096 µM

**Q.** Which IC50 does the source give for `Cc1nc(-c2nnn(C)c2CNc2nnc(C3CCC3)o2)ccc1O[C@H]1CCC[C@H](C(=O)O)C1` [Example 51] here?
**A.** 0.059 µM

**Q.** With `CCCc1nnc(NCc2c(-c3ccc(O[C@H]4CCC[C@H](C(=O)O)C4)c(C)n3)nnn2C)o1` [Example 52] as the compound, how does the IC50 read?
**A.** 0.396 µM

— patent US11319315B2, “Cyclohexyl acid triazole azoles as LPA antagonists” (BRISTOL-MYERS SQUIBB COMPANY, priority 2017, dated 2022)
